Here are results for 31 compounds from patent publication US6949542B2, “Dihydro-benzo[b][1,4]diazepin-2-one derivatives” (Hoffman-La Roche Inc., priority 2002, dated 2005).

The structures appear in SMILES notation.

As usually defined, the melting point is the temperature of the solid-liquid transition.

As to `CCCOc1cc2c(cc1C(F)(F)F)NC(=O)CC(c1cccc(-c3ccc(C4CC4)nc3)c1)=N2` [Example 216, 4-[3-(6-Cyclopropyl-pyridin-3-yl)-phenyl]-7-propoxy-8-trifluoromethyl-1,3-dihydro-benzo[b][1,4]diazepin-2-one], the melting point was 209 to 210 °C.

`Cc1cc2c(cc1C(F)(F)F)NC(=O)CC(c1cccc(-c3ccc(N(C)C)nc3)c1)=N2` [Example 217, 4-[3-(6-Dimethylamino-pyridin-3-yl)-phenyl]-7-methyl-8-trifluoromethyl-1,3-dihydro-benzo[b][1,4]diazepin-2-one] had a melting point of 231 to 233 °C.

`CN(C)c1ccc(-c2cccc(C3=Nc4cc(OCC(F)(F)F)c(C(F)(F)F)cc4NC(=O)C3)c2)cn1` [Example 218, 4-[3-(6-Dimethylamino-pyridin-3-yl)-phenyl]-7-(2,2,2-trifluoro-ethoxy)-8-trifluoromethyl-1,3-dihydro-benzo[b][1,4]diazepin-2-one] registered a melting point of 240 to 241 °C.

Turning to `CCCOc1cc2c(cc1C(F)(F)F)NC(=O)CC(c1cccc(-c3cc(C)nc(C)c3)c1)=N2` [Example 219, 4-[3-(2,6-Dimethyl-pyridin-4-yl)-phenyl]-7-propoxy-8-trifluoromethyl-1,3-dihydro-benzo[b][1,4]diazepin-2-one], the melting point was 205 to 206 °C.

In turn, `O=C1CC(c2cccc(-c3cccnc3C3CC3)c2)=Nc2ccc(C(F)(F)F)cc2N1` [Example 220, 4-[3-(2-Cyclopropyl-pyridin-3-yl)-phenyl]-8-trifluoromethyl-1,3-dihydro-benzo[b][1,4]diazepin-2-one] came in with a melting point of 171 to 173 °C.

`Cc1cc2c(cc1C(F)(F)F)NC(=O)CC(c1cccc(-c3cccnc3C3CC3)c1)=N2` [Example 221, 4-[3-(2-Cyclopropyl-pyridin-3-yl)-phenyl]-7-methyl-8-trifluoromethyl-1,3-dihydro-benzo[b][1,4]diazepin-2-one] returned a melting point of 173 to 175 °C.

On to `Cc1ccncc1-c1cccc(C2=Nc3ccc(C(F)(F)F)cc3NC(=O)C2)c1` [Example 226, 4-[3-(4-Methyl-pyridin-3-yl)-phenyl]-8-trifluoromethyl-1,3-dihydro-benzo[b][1,4]diazepin-2-one], for which the melting point was in the range of 220 to 221 °C.

`CCOc1cc2c(cc1C(F)(F)F)NC(=O)CC(c1cccc(-c3cccnc3C3CC3)c1)=N2` [Example 227, 4-[3-(2-Cyclopropyl-pyridin-3-yl)-phenyl]-7-ethoxy-8-trifluoromethyl-1,3-dihydro-benzo[b][1,4]diazepin-2-one]: the melting point is 187 to 188 °C.

The compound `CCCc1cc2c(cc1C(F)(F)F)NC(=O)CC(c1cccc(-c3cc(C)nc(C)c3)c1)=N2` [Example 229, 4-[3-(2,6-Dimethyl-pyridin-4-yl)-phenyl]-7-propyl-8-trifluoromethyl-1,3-dihydro-benzo[b][1,4]diazepin-2-one] yielded a melting point of 216 °C.

For `CCCc1cc2c(cc1C(F)(F)F)NC(=O)CC(c1cccc(-c3cccnc3)c1)=N2` [Example 230, 7-Propyl-4-(3-pyridin-3-yl-phenyl)-8-trifluoromethyl-1,3-dihydro-benzo[b][1,4]diazepin-2-one], the melting point was 162 °C.

In turn, `CCOc1cc2c(cc1C(F)(F)F)NC(=O)CC(c1cccc(-c3cnccc3C)c1)=N2` [Example 231, 7-Ethoxy-4-[3-(4-methyl-pyridin-3-yl)-phenyl]-8-trifluoromethyl-1,3-dihydro-benzo[b][1,4]diazepin-2-one] had a melting point of 213 to 214 °C.

For `Cc1ccncc1-c1cccc(C2=Nc3cc(OCC(F)(F)F)c(C(F)(F)F)cc3NC(=O)C2)c1` [Example 232, 4-[3-(4-Methyl-pyridin-3-yl)-phenyl]-7-(2,2,2-trifluoro-ethoxy)-8-trifluoromethyl-1,3-dihydro-benzo[b][1,4]diazepin-2-one], the melting point is 198 to 200 °C.

Take `Cc1ccncc1-c1cccc(C2=Nc3cc(C)c(C(F)(F)F)cc3NC(=O)C2)c1` [Example 233, 7-Methyl-4-[3-(4-methyl-pyridin-3-yl)-phenyl]-8-trifluoromethyl-1,3-dihydro-benzo[b][1,4]diazepin-2-one]: the melting point lay in the range of 205 to 207 °C.

`CCc1ncccc1-c1cccc(C2=Nc3cc(C)c(C(F)(F)F)cc3NC(=O)C2)c1` [Example 234, 4-[3-(2-Ethyl-pyridin-3-yl)-phenyl]-7-methyl-8-trifluoromethyl-1,3-dihydro-benzo[b][1,4]diazepin-2-one] displayed a melting point of 213 °C.

Regarding `CCOc1cc2c(cc1C(F)(F)F)NC(=O)CC(c1cccc(-c3cccnc3CC)c1)=N2` [Example 235, 7-Ethoxy-4-[3-(2-ethyl-pyridin-3-yl)-phenyl]-8-trifluoromethyl-1,3-dihydro-benzo[b][1,4]diazepin-2-one], the melting point stood at 214 °C.

As to `CCc1ncccc1-c1cccc(C2=Nc3cc(OCC(F)(F)F)c(C(F)(F)F)cc3NC(=O)C2)c1` [Example 236, 4-[3-(2-Ethyl-pyridin-3-yl)-phenyl]-7-(2,2,2-trifluoro-ethoxy)-8-trifluoromethyl-1,3-dihydro-benzo[b][1,4]diazepin-2-one], the melting point turned out to be 184 °C.

`Cc1ccc(-c2cccc(C3=Nc4cc(C)c(C(F)(F)F)cc4NC(=O)C3)c2)cn1` [Example 237, 7-Methyl-4-[3-(6-methyl-pyridin-3-yl)-phenyl]-8-trifluoromethyl-1,3-dihydro-benzo[b][1,4]diazepin-2-one] showed a melting point of 235 °C.

On to `CCOc1cc2c(cc1C(F)(F)F)NC(=O)CC(c1cccc(-c3ccc(C)nc3)c1)=N2` [Example 238, 7-Ethoxy-4-[3-(6-methyl-pyridin-3-yl)-phenyl]-8-trifluoromethyl-1,3-dihydro-benzo[b][1,4]diazepin-2-one], for which the melting point came to 210 °C.

`Cc1ccc(-c2cccc(C3=Nc4cc(OCC(F)(F)F)c(C(F)(F)F)cc4NC(=O)C3)c2)cn1` [Example 239, 4-[3-(6-Methyl-pyridin-3-yl)-phenyl]-7-(2,2,2-trifluoro-ethoxy)-8-trifluoromethyl-1,3-dihydro-benzo[b][1,4]diazepin-2-one] came in with a melting point of 159 °C.

Compound `Cc1cc(-c2cccc(C3=Nc4cc(F)c(C(F)(F)F)cc4NC(=O)C3)c2)cc(C)n1` [Example 240, 4-[3-(2,6-Dimethyl-pyridin-4-yl)-phenyl]-7-fluoro-8-trifluoromethyl-1,3-dihydro-benzo[b][1,4]diazepin-2-one] returned a melting point of 251 to 252 °C.

For the compound `C=Cc1cc2c(cc1C(F)(F)F)NC(=O)CC(c1cccc(-c3cc(C)nc(C)c3)c1)=N2` [Example 241, 4-[3-(2,6-Dimethyl-pyridin-4-yl)-phenyl]-8-trifluoromethyl-7-vinyl-1,3-dihydro-benzo[b][1,4]diazepin-2-one], the melting point was in the range of 225 to 226 °C.

`COCCOc1cc2c(cc1C(F)(F)F)NC(=O)CC(c1cccc(-c3ccnc(C)c3)c1)=N2` [Example 242, 7-(2-Methoxy-ethoxy)-4-[3-(2-methyl-pyridin-4-yl)-phenyl]-8-trifluoromethyl-1,3-dihydro-benzo[b][1,4]diazepin-2-one] gave a melting point of 198 to 199 °C.

`COCCOc1cc2c(cc1C(F)(F)F)NC(=O)CC(c1cccc(-c3cc(C)nc(C)c3)c1)=N2` [Example 243, 4-[3-(2,6-Dimethyl-pyridin-4-yl)-phenyl]-7-(2-methoxy-ethoxy)-8-trifluoromethyl-1,3-dihydro-benzo[b][1,4]diazepin-2-one] registered a melting point of 213 to 214 °C.

`C=Cc1cc2c(cc1C(F)(F)F)NC(=O)CC(c1cccc(-c3ccnc(C)c3)c1)=N2` [Example 244, 4-[3-(2-Methyl-pyridin-4-yl)-phenyl]-8-trifluoromethyl-7-vinyl-1,3-dihydro-benzo[b][1,4]diazepin-2-one] showed a melting point of 200 to 201 °C.

`Cc1cc(C)c(-c2cccc(C3=Nc4cc(C)c(C(F)(F)F)cc4NC(=O)C3)c2)cn1` [Example 245, 4-[3-(4,6-Dimethyl-pyridin-3-yl)-phenyl]-7-methyl-8-trifluoromethyl-1,3-dihydro-benzo[b][1,4]diazepin-2-one]: the melting point was 218 to 219 °C.

As for `CCOc1cc2c(cc1C(F)(F)F)NC(=O)CC(c1cccc(-c3cnc(C4CC4)cc3C)c1)=N2` [Example 247, 4-[3-(6-Cyclopropyl-4-methyl-pyridin-3-yl)-phenyl]-7-ethoxy-8-trifluoromethyl-1,3-dihydro-benzo[b][1,4]diazepin-2-one], the melting point worked out at 202 °C.

Regarding `Cc1cc(C2CC2)ncc1-c1cccc(C2=Nc3cc(OCC(F)(F)F)c(C(F)(F)F)cc3NC(=O)C2)c1` [Example 248, 4-[3-(6-Cyclopropyl-4-methyl-pyridin-3-yl)-phenyl]-7-(2,2,2-trifluoro-ethoxy)-8-trifluoromethyl-1,3-dihydro-benzo[b][1,4]diazepin-2-one], the melting point turned out to be 206 °C.

With `CCOc1cc2c(cc1C(F)(F)F)NC(=O)CC(c1cccc(-c3cc(C)nc(CC)c3)c1)=N2` [Example 250, 7-Ethoxy-4-[3-(2-ethyl-6-methyl-pyridin-4-yl)-phenyl]-8-trifluoromethyl-1,3-dihydro-benzo[b][1,4]diazepin-2-one], the melting point is 215 °C.

Consider `CCc1cc(-c2cccc(C3=Nc4cc(OCC(F)(F)F)c(C(F)(F)F)cc4NC(=O)C3)c2)cc(C)n1` [Example 251, 4-[3-(2-Ethyl-6-methyl-pyridin-4-yl)-phenyl]-7-(2,2,2-trifluoro-ethoxy)-8-trifluoromethyl-1,3-dihydro-benzo[b][1,4]diazepin-2-one], for which the melting point stood at 209 °C.

Take `CCOc1cc2c(cc1C(F)(F)F)NC(=O)CC(c1cccc(-c3cnc(C)cc3C)c1)=N2` [Example 252, 4-[3-(4,6-Dimethyl-pyridin-3-yl)-phenyl]-7-ethoxy-8-trifluoromethyl-1,3-dihydro-benzo[b][1,4]diazepin-2-one]: the melting point lay in the range of 226 to 228 °C.

On to `Cc1cc(C)c(-c2cccc(C3=Nc4cc(OCC(F)(F)F)c(C(F)(F)F)cc4NC(=O)C3)c2)cn1` [Example 253, 4-[3-(4,6-Dimethyl-pyridin-3-yl)-phenyl]-7-(2,2,2-trifluoro-ethoxy)-8-trifluoromethyl-1,3-dihydro-benzo[b][1,4]diazepin-2-one], for which the melting point was 176 to 180 °C.
